The values that follow come from patent publication US6037354A, “Alpha 1a adrenergic receptor antagonists” (Merck & Co., Inc., priority 1998, dated 2000).

Usually Ki stands for a measure of affinity in units of concentration, obtained from inhibition or displacement.

Assay [1] has as its target T1, human alpha 1a adrenergic receptor (Homo sapiens, UniProt P35348).
T1 sequence (P35348 1-466): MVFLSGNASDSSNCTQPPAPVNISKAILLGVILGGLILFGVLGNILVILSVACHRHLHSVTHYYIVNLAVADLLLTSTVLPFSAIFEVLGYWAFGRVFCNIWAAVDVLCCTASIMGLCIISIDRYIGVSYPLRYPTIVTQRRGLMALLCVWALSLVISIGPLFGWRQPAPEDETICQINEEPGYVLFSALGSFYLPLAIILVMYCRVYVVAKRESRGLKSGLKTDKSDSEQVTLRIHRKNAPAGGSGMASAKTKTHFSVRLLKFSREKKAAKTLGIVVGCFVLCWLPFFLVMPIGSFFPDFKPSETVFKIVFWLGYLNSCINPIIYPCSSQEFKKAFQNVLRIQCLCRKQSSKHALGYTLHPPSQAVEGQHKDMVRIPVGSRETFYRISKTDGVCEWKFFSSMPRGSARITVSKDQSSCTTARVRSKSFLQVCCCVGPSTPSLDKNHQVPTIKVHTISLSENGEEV
Nature of the assay: Alpha 1a Adrenergic Receptor Binding screening assay ([125I]-HEAT competition, membranes of stably transfected human alpha 1a cell line). As to conditions: human alpha 1a receptor, 100 pM [125I]-HEAT, room temperature, one hour. The method, then: Screening assay: Alpha 1a Adrenergic Receptor Binding
Membranes prepared from the stably transfected human alpha 1a cell line (ATCC CRL 11140) were used to identify compounds that bind to the human alpha 1a adrenergic receptor. These competition binding reactions (total volume=200 μl) contained 50 mM Tris-HCl pH. 7.4, 5 mM EDTA, 150 mM NaCl, 100 pM [^125 I]-HEAT, membranes prepared from the alpha 1a cell line and increasing amounts of unlabeled ligand. Reactions were incubated at room temperature for one hour with shaking. Reactions were filtered onto Whatman GF/C glass fiber filters with a Inotec 96 well cell harvester. Filters were washed three times with ice cold buffer and bound radioactivity was determined (Ki).

Assay [2] has as its system human alpha 1b and alpha 1d adrenergic receptors. The assay is described as follows: Selective Binding assays ([125I]-HEAT competition, membranes of stably transfected human alpha 1d and alpha 1b cell lines), compared with alpha 1a. As to conditions: alpha 1a versus alpha 1b and alpha 1d. As to the method: Selective Binding assays Membranes prepared from stably transfected human alpha 1d and alpha 1b cell lines (ATCC CRL 11138 and CRL 11139, respectively) were used to identify compounds that selectively bind to the human alpha 1a adrenergic receptor. These competition binding reactions (total volume=200 μl) contained 50 mM Tris-HCl pH. 7.4, 5 mM EDTA, 150 mM NaCl, 100 pM [^125 I]-HEAT, membranes prepared from cell lines transfected with the respective alpha 1 subtype expression plasmid and increasing amounts of unlabeled ligand. Reactions were incubated at room temperature for one hour with shaking. Reactions were filtered onto Whatman GF/C glass fiber filters with a Inotec 96 well cell harvester. Filters were washed three times with ice cold buffer and bound radioactivity was determined (Ki).

Structures can show the parent of a compound that is named as a salt.

For `Cl.O=C(N[C@@H]1CCN([C@H]2CC[C@@H](c3ccccn3)CC2)C1)N1C(=O)OC[C@@H]1c1ccc(F)c(F)c1` [Example 12, (4S)-cis-4-(3,4-Difluorophenyl)-2-oxooxazolidine-3-carboxylic acid-[1-(4-pyridin-2-yl-cyclohexyl)-(3R)-pyrrolidin-3-yl]amide hydrochloride], in assay [1], the Ki was less than 200 nM. Moreover, the “selectivity in binding to alpha 1a receptors versus binding to the alpha 1b and alpha 1d receptors” value in assay [2] is given as “at least 3 fold”.

Turning to `COc1ccccc1[C@H]1CC[C@@H](N2CC[C@@H](NC(=O)N3C(=O)OC[C@@H]3c3ccc(F)c(F)c3)C2)CC1` [Example 16, (4S)-cis-4-(3,4-Difluorophenyl)-2-oxooxazolidine-3-carboxylic acid-{1-[4-(2-methoxyphenyl)-cyclohexyl]-(3R)-pyrrolidin-3-yl}amide hydrochloride], in assay [1], the Ki is roughly 800 nM.

Regarding `O=C(N[C@@H]1CCN(C2CCC(O)(c3ccccn3)CC2)C1)N1C(=O)OC[C@@H]1c1ccc(F)c(F)c1` (stereo partly drawn) [Example 20, (4S)-trans-4-(3,4-Difluorophenyl)-2-oxooxazolidine-3-carboxylic acid-[1-(4-hydroxy-4-pyridin-2-yl-cyclohexyl)-(3R)-pyrrolidin-3-yl]amide hydrochloride], the “alpha 1a Ki” value in assay [1] was “inactive”.

Take `NC(=O)[C@@H]1OC(=O)N(C(=O)N[C@@H]2CCN([C@H]3CC[C@H](c4ccccc4F)CC3)C2)[C@H]1c1ccc(F)c(F)c1` [Example 78, (4S,5R)-trans-4-(3,4-Difluorophenyl)-3-{1-[4-(2-fluorophenyl)cyclohexyl]-(3R)-pyrrolidin-3-ylcarbamoyl}-2-oxo-oxazolidine-5-carboxamide]: in assay [2], the “selectivity in binding to alpha 1a receptors versus binding to the alpha 1b and alpha 1d receptors” value is recorded as “about 37 fold”.
